Literature values as cited in US8231899B2, “Quick release pharmaceutical compositions of drug substances” (Nycomed Danmark ApS, priority 1998, dated 2012).

Experiments:
[1] = room temperature

| SMILES | solubility at a pH corresponding to 0.1 N HCl [1] | pKa value | solubility in water and 0.1 N HCl [1] |
| --- | --- | --- | --- |
| CN1C(C(=O)Nc2ccccn2)=C(O)c2sc(Cl)cc2S1(=O)=O [lornoxicam] | less than 1 mg 100 ml | about 4.7 | – |
| CC(=O)Oc1ccccc1C(=O)O [acetylsalicylic acid] | – | – | practically insoluble |
| COc1ccc2c(c1)c(CC(=O)O)c(C)n2C(=O)c1ccc(Cl)cc1 [indometacin] | – | – | practically insoluble |
